SMILES strings stand for the structures.

Experimental findings from ChEMBL document CHEMBL4152384, “Pyrtriazoles, a Novel Class of Store-Operated Calcium Entry Modulators: Discovery, Biological Profiling, and in Vivo Proof-of-Concept Efficacy in Acute Pancreatitis” (J Med Chem, 2018) are described below.

In this test the target is Stromal interaction molecule 1 & 2/Calcium release-activated calcium channel protein 1 (Mus musculus) (UniProt Q8BWG9+P70302+P83093). Nature of the test: Modulation of STIM1/STIM2/Orai1 in mouse BV2 cells assessed as induction of store-operated calcium entry by measuring residual activity at 10 uM preincubated for 30 mins followed by tBhQ-mediated Ca2+ depletion and Ca2+ re-addition to extracellular solution measured for 600 secs by Fluo-4 AM-based fluorometric assay relative to control. Format: cell-based.

Take `COc1ccc(-n2cc(-c3ccc(-n4nc(C(F)(F)F)cc4C(F)(F)F)cc3)nn2)cc1OC`: the Activity turned out to be 94.3%.

In the case of `COc1cc(OC)cc(-c2cn(-c3ccc(-n4nc(C(F)(F)F)cc4C(F)(F)F)cc3)nn2)c1`, the Activity was found to be 75.2%.

For `CCOC(=O)c1cnn(-c2ccc(-n3cc(CCCC(=O)O)nn3)cc2)c1C(F)(F)F`, the Activity turned out to be 72.2%.

For the molecule `COc1cc(OC)cc(-n2cc(-c3ccc(-n4nc(C(F)(F)F)cc4C(F)(F)F)cc3)nn2)c1`, the Activity was 93.7%.

As for `CC(=O)Nc1ccc(-n2cc(-c3ccc(-n4nc(C(F)(F)F)cc4C(F)(F)F)cc3)nn2)cc1`, the Activity is 98.8%.

`CCOC(=O)c1cnn(-c2ccc(-c3cn(-c4ccc(OC)cc4)nn3)cc2)c1C(F)(F)F`: the Activity is 83.1%.

Take `FC(F)(F)c1cc(C(F)(F)F)n(-c2ccc(-n3cc(-c4ccccn4)nn3)cc2)n1`: the Activity is 114%.

Regarding `FC(F)(F)c1cc(C(F)(F)F)n(-c2ccc(-c3cn(-c4ccccc4)nn3)cc2)n1`, the Activity was determined as 99.7%.

For `COc1cccc(-c2cn(-c3ccc(-n4nc(C(F)(F)F)cc4C(F)(F)F)cc3)nn2)c1`, the Activity was determined as 105%.

With `O=C(O)CCCn1cc(-c2ccc(-n3nc(C(F)(F)F)cc3C(F)(F)F)cc2)nn1`, the Activity came to 81.7%.

Regarding `FC(F)(F)c1cc(C(F)(F)F)n(-c2ccc(-n3cc(-c4ccncc4)nn3)cc2)n1`, the Activity is 94.7%.

On to `COc1cccc(-n2cc(-c3ccc(-n4nc(C(F)(F)F)cc4C(F)(F)F)cc3)nn2)c1`, for which the Activity amounted to 113%.

With `CCOC(=O)c1cnn(-c2ccc(-c3cn(-c4ccncc4)nn3)cc2)c1C(F)(F)F`, the Activity came to 79.8%.

Turning to `Fc1cnccc1-n1cc(-c2ccc(-n3nc(C(F)(F)F)cc3C(F)(F)F)cc2)nn1`, the Activity was 106%.

Take `CCOC(=O)c1cnn(-c2ccc(-c3cn(-c4ccccc4)nn3)cc2)c1C(F)(F)F`: the Activity came to 97.5%.

Turning to `CCOC(=O)c1cnn(-c2ccc(-n3cc(-c4ccc(OC)c(OC)c4)nn3)cc2)c1C(F)(F)F`, the Activity is 82.8%.

As to `CCOC(=O)c1cnn(-c2ccc(-c3cn(-c4ccccn4)nn3)cc2)c1C(F)(F)F`, the Activity was 77%.

Turning to `FC(F)(F)c1cc(C(F)(F)F)n(-c2ccc(-c3cn(-c4ccc(Cl)cc4)nn3)cc2)n1`, the Activity was determined as 116%.

Turning to `CCOC(=O)c1cnn(-c2ccc(-n3cc(-c4ccc(Oc5ccccc5)cc4)nn3)cc2)c1C(F)(F)F`, the Activity came to 83.8%.

In the case of `COc1ccc(-c2cn(-c3ccc(-n4nc(C(F)(F)F)cc4C(F)(F)F)cc3)nn2)cc1`, the Activity came to 99.6%.

Regarding `COc1cc(-c2cn(-c3ccc(-n4nc(C(F)(F)F)cc4C(F)(F)F)cc3)nn2)ccc1O`, the Activity worked out at 80.5%.

As for `CC(=O)Nc1ccccc1-c1cn(-c2ccc(-n3nc(C(F)(F)F)cc3C(F)(F)F)cc2)nn1`, the Activity is 93.2%.

For `CCOC(=O)c1cnn(-c2ccc(-n3cc(-c4ccccn4)nn3)cc2)c1C(F)(F)F`, the Activity was 81%.

For `FC(F)(F)c1cc(C(F)(F)F)n(-c2ccc(-c3cn(-c4cccnc4)nn3)cc2)n1`, the Activity was 77%.

Take `Nc1cccc(-c2cn(-c3ccc(-n4nc(C(F)(F)F)cc4C(F)(F)F)cc3)nn2)c1`: the Activity worked out at 103%.

As to `CC(=O)Nc1cccc(-c2cn(-c3ccc(-n4nc(C(F)(F)F)cc4C(F)(F)F)cc3)nn2)c1`, the Activity was 98.1%.

Regarding `CCOC(=O)c1cnn(-c2ccc(-n3cc(-c4cccnc4)nn3)cc2)c1C(F)(F)F`, the Activity came out at 91.6%.

In the case of `Nc1cccc(-n2cc(-c3ccc(-n4nc(C(F)(F)F)cc4C(F)(F)F)cc3)nn2)c1`, the Activity worked out at 85.6%.

On to `CCOC(=O)c1cnn(-c2ccc(-n3cc(-c4ccc(NC(C)=O)cc4)nn3)cc2)c1C(F)(F)F`, for which the Activity stood at 106%.

In the case of `CCOC(=O)c1cnn(-c2ccc(-n3cc(-c4ccc(Cl)cc4)nn3)cc2)c1C(F)(F)F`, the Activity is 88.6%.

For `CCOC(=O)c1cnn(-c2ccc(-n3cc(-c4ccccc4)nn3)cc2)c1C(F)(F)F`, the Activity is 86.1%.

Regarding `FC(F)(F)c1cc(C(F)(F)F)n(-c2ccc(-n3cc(-c4cccnc4)nn3)cc2)n1`, the Activity stood at 87.8%.

Consider `CCOC(=O)c1cnn(-c2ccc(-c3cn(-c4ccc(NC(C)=O)cc4)nn3)cc2)c1C(F)(F)F`, for which the Activity was determined as 108%.

As to `CCOC(=O)c1cnn(-c2ccc(-c3cn(-c4ccc(Oc5ccccc5)cc4)nn3)cc2)c1C(F)(F)F`, the Activity turned out to be 101%.

Consider `CCOC(=O)c1cnn(-c2ccc(-c3cn(-c4ccc(OC)c(OC)c4)nn3)cc2)c1C(F)(F)F`, for which the Activity was 113%.

Consider `Fc1cnccc1-c1cn(-c2ccc(-n3nc(C(F)(F)F)cc3C(F)(F)F)cc2)nn1`, for which the Activity was found to be 90.2%.

In the case of `CCOC(=O)c1cnn(-c2ccc(-c3cn(-c4ccc(N)cc4)nn3)cc2)c1C(F)(F)F`, the Activity turned out to be 93.2%.

Turning to `Oc1cccc(-c2cn(-c3ccc(-n4nc(C(F)(F)F)cc4C(F)(F)F)cc3)nn2)c1`, the Activity stood at 95.9%.

As for `CCOC(=O)c1cnn(-c2ccc(-n3cc(-c4ccncc4F)nn3)cc2)c1C(F)(F)F`, the Activity was found to be 107%.

On to `CCOC(=O)c1cnn(-c2ccc(-c3cn(-c4cccc(O)c4)nn3)cc2)c1C(F)(F)F`, for which the Activity turned out to be 106%.

As to `CC(=O)Nc1cccc(-n2cc(-c3ccc(-n4nc(C(F)(F)F)cc4C(F)(F)F)cc3)nn2)c1`, the Activity was 101%.

Regarding `FC(F)(F)c1cc(C(F)(F)F)n(-c2ccc(-n3cc(-c4ccc(Oc5ccccc5)cc4)nn3)cc2)n1`, the Activity is 73.5%.

For `CCOC(=O)c1cnn(-c2ccc(-n3cc(-c4cccc(NC(C)=O)c4)nn3)cc2)c1C(F)(F)F`, the Activity worked out at 75.3%.

Consider `CCOC(=O)c1cnn(-c2ccc(-n3cc(-c4cccc(OC)c4)nn3)cc2)c1C(F)(F)F`, for which the Activity amounted to 105%.

Consider `CCOC(=O)c1cnn(-c2ccc(-n3cc(-c4cc(OC)cc(OC)c4)nn3)cc2)c1C(F)(F)F`, for which the Activity was determined as 99.4%.

Turning to `CCOC(=O)c1cnn(-c2ccc(-c3cn(-c4cccc(NC(C)=O)c4)nn3)cc2)c1C(F)(F)F`, the Activity stood at 117%.

For the molecule `Nc1ccc(-c2cn(-c3ccc(-n4nc(C(F)(F)F)cc4C(F)(F)F)cc3)nn2)cc1`, the Activity came out at 98.1%.

Take `CCOC(=O)c1cnn(-c2ccc(-c3cn(-c4cccc(OC)c4)nn3)cc2)c1C(F)(F)F`: the Activity is 117%.

Take `FC(F)(F)c1cc(C(F)(F)F)n(-c2ccc(-c3cn(-c4ccncc4)nn3)cc2)n1`: the Activity amounted to 84%.

For `O=C(O)CCCc1cn(-c2ccc(-n3nc(C(F)(F)F)cc3C(F)(F)F)cc2)nn1`, the Activity was 80.1%.

For `COc1ccc(-n2cc(-c3ccc(-n4nc(C(F)(F)F)cc4C(F)(F)F)cc3)nn2)cc1`, the Activity stood at 78.7%.

Take `CCOC(=O)c1cnn(-c2ccc(-c3cn(-c4cccnc4)nn3)cc2)c1C(F)(F)F`: the Activity was determined as 62.6%.

For `CCOC(=O)c1cnn(-c2ccc(-c3cn(-c4cc(OC)cc(OC)c4)nn3)cc2)c1C(F)(F)F`, the Activity was 113%.

As for `Nc1ccc(-n2cc(-c3ccc(-n4nc(C(F)(F)F)cc4C(F)(F)F)cc3)nn2)cc1`, the Activity was 90.2%.

As to `FC(F)(F)c1cc(C(F)(F)F)n(-c2ccc(-n3cc(-c4ccc(Cl)cc4)nn3)cc2)n1`, the Activity worked out at 106%.

With `CCOC(=O)c1cnn(-c2ccc(-n3cc(-c4ccc(N)cc4)nn3)cc2)c1C(F)(F)F`, the Activity came to 91.7%.

With `CCOC(=O)c1cnn(-c2ccc(-n3cc(-c4ccc(OC)cc4)nn3)cc2)c1C(F)(F)F`, the Activity was 95.6%.
